The subject of data set [1] is skin. Briefly: Example 1: cooling and heating plates applied to skin after topical and injected ALA; porphyrin synthesis and skin photosensitization. The data set is classed as in vivo. Here is the method:
When a skin surface is cooled, there can be a gradient of temperature such that ALA metabolism might favor the warm dermis. To examine this effect, cooling and heating plates were applied to skin after topical and injected ALA administration, and porphyrin synthesis and skin photosensitization were then determined.

The test system of the next data set is human skin. The data set can be described thus: Example 1: suppression of epidermal porphyrin accumulation by blue light exposure during ALA metabolism. The data set is classed as in vivo. Conditions: 20% topical ALA, 410-nm blue light 1.47 mW/cm^2 during 2 hours incubation, then 632-nm light 100 J/cm^2.
For a further data set, the system named is skin of a pig. The data set can be described thus: Example 2: blue light through attenuating films during ALA incubation; porphyrin accumulation by fluorescence. The data set is classed as in vivo. Conditions: 20% topical ALA, 410 nm blue light 2.6 mW/cm^2 for 3 hours through attenuating films, 100% to 17% transmittance (0.4 mW/cm^2). As to the method: In accordance with embodiments of the present invention, 20% topical ALA was applied to the skin of a pig. Nine different areas were divided and different attenuating films were placed over the skin during the entire incubation time (or the metabolism period). The attenuating films reduced the light transmittance allowing a range of irradiance varying from 100%, 56%, 44%, 35%, 26%, 21%, 19% to 17% of light during the incubation period.
Immediately after the drug application, a 410 nm blue light was irradiated through all the experiment sites at an irradiance of 2.6 mW/cm^2 for 3 hours. During this period, porphyrin accumulation was measured in each test area by digital fluorescence photography (˜410 nm excitation, >600 nm emission), and microscopically determined by fluorescence microscopy of skin biopsies (8 mm diameter) obtained prior to light exposure. After the 3 hours of incubation, red light at 635 nm exposure with 200 J/cm^2 fluence was delivered at 100 mW/cm^2 irradiance, provided by an LED array source (Omnilux, PhotoTherapeutics LTD, Cheshire UK). Measurements and biopsies were repeated after 24 hours, prior to euthanasia.

The subject of data set [2] is skin. Briefly: Clinical suppression of superficial porphyrin synthesis by inhibiting light during ALA metabolism. The data set is classed as in vivo. The source says: In further embodiments, superficial porphyrin accumulation resulting from topical application of ALA may be suppressed by blue light exposure during ALA metabolism. For example, a topical solution of 20% ALA can be applied to a region of skin. The region of skin can then be exposed to low level irradiance 410 nm blue light to inhibit accumulation of porphyrins. This light can be applied during the period of ALA metabolism, e.g., immediately after the application of the topical ALA solution or later in time. […] Here, clinical suppression refers to a diminished response of the tissue to treatment radiation in subsequent PDT procedures.

The test system of data set [3] is moderate to severe inflammatory acne. The data set is classed as in vivo, human. Conditions: both sides of the face. As to the method:
A 20% ALA solution (Dusa Pharmaceutics) was applied topically to the patient's face. The right side of the patient's face was covered with saran wrap and aluminum foil for 3 hours of incubation (to provide a conventional PDT treatment), while blue light at very low intensity (an inhibiting radiation) was applied to the left side of the patient's face for 3 hours (using a Clearlight at […], provided about 2 meters from the patient).
After the incubation period, both sides of the face were irradiated with red light treatment radiation (635 nm wavelength, at about 180 J/cm^2, using an Aktilite). During the red light irradiation, the patient indicated a subjective pain score of about 9-10 (on a 0-10 scale, with 0 being no pain, 5 being moderate pain, and 10 being maximum pain) on the right side of their face receiving conventional PDT treatment.

For data set [4], the system named is anterior ear skin of swine. The data set is classed as in vivo. Here is the method:
Studies of ALA metabolism and porphyrin accumulation rates have been performed in anterior ear skin of swine. Such tissue bears many similarities to facial skin tissue in humans with respect to size and location of relevant tissue layers and target regions such as hair follicles and sebaceous glands. Topical 20% ALA in a water/alcohol solution was applied to the skin tissue, and formation of photosensitizers was analyzed based on quantitative fluorescence analysis of porphyrins formed from the ALA.
Overall porphyrin fluorescence was not observed until about 30-45 minutes after application of the ALA solution, although epidermis fluorescence measurement was statistically significant after only 15 minutes following the ALA application. Between about 30 and 120 minutes following application of the ALA solution, epidermis, hair follicles, and sebaceous glands became progressively more fluorescent. […] Fluorescence in all sites reached a maximum intensity between about 75 and 180 minutes after application of the ALA solution.

Description for human skin: Suppression of epidermal porphyrin accumulation by blue light exposure during ALA metabolism, in accordance with exemplary embodiments of the present invention, was tested in humans. With reference to FIG. 6, a 20% topical ALA solution was applied to human skin 610, covered with aluminum foil 620, while only some uncovered areas received 410-nm blue light (1.47 mW/cm^2) 630 during the incubation time. A fluorescent photo 640 was taken after 2 hours of incubation, and 632-nm light (100 J/cm^2) was then applied to all areas 650. A clinical photograph 660 was taken after PDT treatment.

In the case of `NCC(=O)CCC(=O)O` [ALA, 5-aminolevulinic acid], the “conversion of epidermal ALA to porphyrins” value with skin [1] (skin cooling to less than about 20° C., topical and injected ALA) was “significantly suppress”. Besides, the dermal porphyrin synthesis result with skin [1] (skin surface temperature 20° C.) is on record as “partially suppressed”. The “porphyrin accumulation and subsequent PDT reactions” value in the data set with human skin is on record as “suppressed”. Further, in the data set with skin of a pig, the “porphyrin accumulation under blue light” value is “inhibition of porphyrin accumulation in all sites down to 17% light transmittance”. The “clinical suppression of superficial porphyrin synthesis” value in the data set on skin [2] (red light 633 nm, irradiance about 14-40 mW/cm^2) is “some clinical suppression”. In addition, in the data set with skin [2] (topical 20% ALA, blue light 415 nm, irradiance about 10-30 mW/cm^2 during ALA metabolism), the “clinical suppression of epidermal and/or superficial porphyrin synthesis” value is recorded as “almost complete clinical suppression”. Besides, the “suppression of photosensitizer formation” value in the data set on skin [2] (topical 20% ALA, blue light, irradiance about 60 μW/cm^2 to 3 mW/cm^2) is “Some suppression”. The “clinical suppression of photosensitizer formation” value with skin [2] (topical 20% ALA, blue light, irradiance less than about 30 μW/cm^2) was “No clinical suppression”. Also, the “acne outcome after four weeks” value in data set [3] was “no new inflammatory acne”. The “fluorescence of hair follicles and sebaceous glands relative to other sites (trend)” value in data set [4] (in vivo) is “stronger fluorescence compared with epidermis and eccrine glands”. In addition, the “time after application at which epidermis fluorescence measurement was statistically significant” value in data set [4] (swine) was found to be 15 min. In addition, in data set [4] (swine, in vivo), the “time after application at which fluorescence reached maximum intensity” value was 75 to 180 min, the “time after application until overall porphyrin fluorescence was observed” value is 30 to 45 min, the “time at which eccrine gland fluorescence was first detected” value is given as “about 30 minutes” and the “time at which sebaceous glands started to show fluorescence” value fell in the range of 45 to 75 min.

The values above are taken from patent publication US9108045B2, “Method and apparatus for optical inhibition of photodynamic therapy” (The General Hospital Corporation, priority 2007, dated 2015).
